According to ChEMBL document CHEMBL1201862, “PubChem BioAssay data set” (2004):
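Values below derive from 48-hour exposures of cells grown in 96-well plates, with endpoints linearly interpolated between the two concentrations bracketing the appropriate inhibition level. GI50 is the concentration that inhibits growth by half.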 Active and inactive are the calls of the source. Cut-off read from the data, not from the text of the source: active = GI50 up to about 1.1 µM and inactive = higher.

Experiments:
Assay in all cases: NCI tumour cell line growth inhibition, 48 h
NCI-H460 = test system: NCI-H460
OVCAR-4 = test system: OVCAR-4
SN12C = test system: SN12C
OVCAR-8 = test system: OVCAR-8
SNB-19 = test system: SNB-19
A549 = test system: A549
DU-145 = test system: DU-145
HL-60 = test system: HL-60
KM12 = test system: KM12
T47D = test system: T47D
SF-268 = test system: SF-268
MDA-N = test system: MDA-N
LOX IMVI = test system: LOX IMVI
SK-OV-3 = test system: SK-OV-3
HT-29 = test system: HT-29
NCI/ADR-RES = test system: NCI/ADR-RES
Hs-578T = test system: Hs-578T
SNB-75 = test system: SNB-75
SK-MEL-2 = test system: SK-MEL-2
HCC 2998 = test system: HCC 2998

| Compound | GI50 (NCI-H460) | GI50 (OVCAR-4) | GI50 (SN12C) | GI50 (OVCAR-8) | GI50 (SNB-19) | GI50 (A549) | GI50 (DU-145) | GI50 (HL-60) | GI50 (KM12) | GI50 (T47D) | GI50 (SF-268) | GI50 (MDA-N) | GI50 (LOX IMVI) | GI50 (SK-OV-3) | GI50 (HT-29) | GI50 (NCI/ADR-RES) | GI50 (Hs-578T) | GI50 (SNB-75) | GI50 (SK-MEL-2) | GI50 (HCC 2998) |
| --- | --- | --- | --- | --- | --- | --- | --- | --- | --- | --- | --- | --- | --- | --- | --- | --- | --- | --- | --- | --- |
| O=C(CCCn1ccnc1[N+](=O)[O-])NCCn1cnc([N+](=O)[O-])c1 | > 100 µM (inactive) | > 100 µM (inactive) | > 100 µM (inactive) | > 100 µM (inactive) | > 100 µM (inactive) | > 100 µM (inactive) | > 100 µM (inactive) | > 100 µM (inactive) | > 100 µM (inactive) | > 100 µM (inactive) | > 100 µM (inactive) | > 100 µM (inactive) | > 100 µM (inactive) | > 100 µM (inactive) | > 100 µM (inactive) | > 100 µM (inactive) | > 100 µM (inactive) | > 100 µM (inactive) | > 100 µM (inactive) | > 100 µM (inactive) |
| Clc1cc(C(c2cc(Cl)sc2Cl)c2cc(Cl)sc2Cl)c(Cl)s1 | > 100 µM (inactive) | > 100 µM (inactive) | > 100 µM (inactive) | > 100 µM (inactive) | > 100 µM (inactive) | > 100 µM (inactive) | > 100 µM (inactive) | > 100 µM (inactive) | > 100 µM (inactive) | > 100 µM (inactive) | > 100 µM (inactive) | > 100 µM (inactive) | > 100 µM (inactive) | > 100 µM (inactive) | > 100 µM (inactive) | > 100 µM (inactive) | > 100 µM (inactive) | > 100 µM (inactive) | > 100 µM (inactive) | > 100 µM (inactive) |
| O=C1OC([C@H](O)c2cccnc2)c2ccccc21 (stereo not given in full) | > 10 µM (inactive) | > 10 µM (inactive) | > 10 µM (inactive) | > 10 µM (inactive) | > 10 µM (inactive) | > 10 µM (inactive) | > 10 µM (inactive) | > 10 µM (inactive) | > 10 µM (inactive) | > 10 µM (inactive) | > 10 µM (inactive) | > 10 µM (inactive) | > 10 µM (inactive) | > 10 µM (inactive) | > 10 µM (inactive) | > 10 µM (inactive) | > 10 µM (inactive) | > 10 µM (inactive) | > 10 µM (inactive) | > 10 µM (inactive) |
| CC(=O)N1c2ccccc2Sc2cc(C(O)(C(F)(F)F)C(F)(F)F)ccc21 | > 10 µM (inactive) | > 10 µM (inactive) | > 10 µM (inactive) | > 10 µM (inactive) | > 10 µM (inactive) | > 10 µM (inactive) | > 10 µM (inactive) | > 10 µM (inactive) | > 10 µM (inactive) | 9.86 µM (inactive) | > 10 µM (inactive) | > 10 µM (inactive) | > 10 µM (inactive) | > 10 µM (inactive) | > 10 µM (inactive) | > 10 µM (inactive) | > 10 µM (inactive) | 9.59 µM (inactive) | > 10 µM (inactive) | > 10 µM (inactive) |
| C=CCN1CCC2(CC1)NC(=O)c1ccccc1O2 | > 100 µM (inactive) | > 100 µM (inactive) | > 100 µM (inactive) | > 100 µM (inactive) | > 100 µM (inactive) | > 100 µM (inactive) | > 100 µM (inactive) | > 100 µM (inactive) | > 100 µM (inactive) | > 100 µM (inactive) | > 100 µM (inactive) | > 100 µM (inactive) | > 100 µM (inactive) | > 100 µM (inactive) | > 100 µM (inactive) | > 100 µM (inactive) | > 100 µM (inactive) | > 100 µM (inactive) | > 100 µM (inactive) | > 100 µM (inactive) |
| O=C(O)c1ccc(NNc2cc(=O)[nH]c(=O)[nH]2)cc1 | > 100 µM (inactive) | > 100 µM (inactive) | > 100 µM (inactive) | > 100 µM (inactive) | > 100 µM (inactive) | > 100 µM (inactive) | > 100 µM (inactive) | > 100 µM (inactive) | > 100 µM (inactive) | > 100 µM (inactive) | > 100 µM (inactive) | > 100 µM (inactive) | > 100 µM (inactive) | > 100 µM (inactive) | > 100 µM (inactive) | > 100 µM (inactive) | > 100 µM (inactive) | 96.8 µM (inactive) | > 100 µM (inactive) | > 100 µM (inactive) |
| NC(=O)NC(=O)c1cccc(NC(=O)CF)c1 | > 100 µM (inactive) | > 100 µM (inactive) | > 100 µM (inactive) | > 100 µM (inactive) | > 100 µM (inactive) | > 100 µM (inactive) | > 100 µM (inactive) | > 100 µM (inactive) | > 100 µM (inactive) | > 100 µM (inactive) | > 100 µM (inactive) | > 100 µM (inactive) | > 100 µM (inactive) | > 100 µM (inactive) | > 100 µM (inactive) | > 100 µM (inactive) | > 100 µM (inactive) | > 100 µM (inactive) | > 100 µM (inactive) | > 100 µM (inactive) |
| CNC(=O)N(C)C(=O)c1ccccc1C(=O)N(C)C(=O)NC | > 10 µM (inactive) | > 10 µM (inactive) | > 10 µM (inactive) | > 10 µM (inactive) | > 10 µM (inactive) | > 10 µM (inactive) | > 10 µM (inactive) | > 10 µM (inactive) | > 10 µM (inactive) | > 10 µM (inactive) | > 10 µM (inactive) | > 10 µM (inactive) | > 10 µM (inactive) | > 10 µM (inactive) | > 10 µM (inactive) | > 10 µM (inactive) | > 10 µM (inactive) | > 10 µM (inactive) | > 10 µM (inactive) | > 10 µM (inactive) |
| O=[N+]([O-])/C=C/c1cc(Cl)c(/C=C/[N+](=O)[O-])cc1Cl | 19.4 µM (inactive) | 1.87 µM (inactive) | 1.8 µM (inactive) | 1.61 µM (inactive) | 2.37 µM (inactive) | 4.63 µM (inactive) | 2.51 µM (inactive) | 0.205 µM (active) | 3.03 µM (inactive) | 2.03 µM (inactive) | 2.66 µM (inactive) | 2.27 µM (inactive) | 1.53 µM (inactive) | 35.6 µM (inactive) | 2.5 µM (inactive) | 2.79 µM (inactive) | 2.91 µM (inactive) | 13.8 µM (inactive) | 3.25 µM (inactive) | 1.53 µM (inactive) |
| COc1ccc(CC2C3=C(CCN2C(=O)C2CCC2)CC2(CC3)OCCO2)cc1O (stereo not given) | 27.7 µM (inactive) | 41.4 µM (inactive) | 29.6 µM (inactive) | 58.5 µM (inactive) | 45.6 µM (inactive) | 40.9 µM (inactive) | 26.5 µM (inactive) | 18.8 µM (inactive) | 31.3 µM (inactive) | 44.8 µM (inactive) | 35.2 µM (inactive) | 12.1 µM (inactive) | > 100 µM (inactive) | 30.5 µM (inactive) | 29 µM (inactive) | 16.3 µM (inactive) | 30.6 µM (inactive) | 15 µM (inactive) | 49.3 µM (inactive) | 28.2 µM (inactive) |
| Cc1ccc(/N=C2\C(=O)C3=C(OC(C)(C)CC3)c3ccccc32)cc1 | 1.58 µM (inactive) | 0.986 µM (active) | 0.505 µM (active) | 0.357 µM (active) | 0.851 µM (active) | 1.83 µM (inactive) | 1.31 µM (inactive) | 0.227 µM (active) | 1.52 µM (inactive) | 0.366 µM (active) | 1.53 µM (inactive) | 0.183 µM (active) | 0.269 µM (active) | 1.57 µM (inactive) | 0.247 µM (active) | 0.318 µM (active) | 2.82 µM (inactive) | 1.26 µM (inactive) | 1.7 µM (inactive) | 1.77 µM (inactive) |
| c1ccc([P+](Cc2ccc(C[P+](c3ccccc3)(c3ccccc3)c3ccccc3)s2)(c2ccccc2)c2ccccc2)cc1 | > 100 µM (inactive) | > 100 µM (inactive) | > 100 µM (inactive) | > 100 µM (inactive) | > 100 µM (inactive) | > 100 µM (inactive) | > 100 µM (inactive) | > 100 µM (inactive) | > 100 µM (inactive) | > 100 µM (inactive) | > 100 µM (inactive) | > 100 µM (inactive) | > 100 µM (inactive) | > 100 µM (inactive) | > 100 µM (inactive) | > 100 µM (inactive) | > 100 µM (inactive) | > 100 µM (inactive) | > 100 µM (inactive) | > 100 µM (inactive) |
| Cc1cc(O)c(C(C)C)cc1C1(c2cc(C(C)C)c(O)cc2C)OC(=O)c2ccccc21 | 1.92 µM (inactive) | 2.12 µM (inactive) | 2.02 µM (inactive) | 2.7 µM (inactive) | 3.15 µM (inactive) | 3.05 µM (inactive) | 2.07 µM (inactive) | 0.415 µM (active) | 1.75 µM (inactive) | 1.85 µM (inactive) | 2.1 µM (inactive) | 1.67 µM (inactive) | 1.78 µM (inactive) | 4.47 µM (inactive) | 2.39 µM (inactive) | 2.9 µM (inactive) | 2.14 µM (inactive) | 2.58 µM (inactive) | 1.82 µM (inactive) | 1.73 µM (inactive) |
| Clc1ccc2c(NCCCCCCNc3ccnc4cc(Cl)ccc34)ccnc2c1 | 2.25 µM (inactive) | 2.54 µM (inactive) | 2.74 µM (inactive) | 2.05 µM (inactive) | 3.8 µM (inactive) | 4.69 µM (inactive) | 6.19 µM (inactive) | 1.98 µM (inactive) | 2.66 µM (inactive) | 2.08 µM (inactive) | 5.35 µM (inactive) | 2.46 µM (inactive) | 1.74 µM (inactive) | 5.22 µM (inactive) | 1.99 µM (inactive) | 4.56 µM (inactive) | 3.27 µM (inactive) | 2.73 µM (inactive) | 5.97 µM (inactive) | 1.67 µM (inactive) |
